#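 Five concentrations, 48 hours, 96-well plates. Definition used: TGI = concentration required for complete inhibition of growth.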
# Test system: NCI-H226 lung
# Test: inhibition of tumour cell growth, NCI panel, 48 h
row,SMILES,TGI
1,O=C1Nc2c(ccc(Cl)c2I)C1=O,46.4 µM
2,CN(C)C(=S)/N=c1\ss/c(=N\C(=S)N(C)C)n1-c1ccc(Cl)c(Cl)c1,> 100 µM

# Test system: NCI-H23 lung
# Test: inhibition of tumour cell growth, NCI panel, 48 h
row,SMILES,TGI
1,O=C1Nc2c(ccc(Cl)c2I)C1=O,30.7 µM
2,NC1=NS(=O)(=O)Nc2nc(-c3ccc([N+](=O)[O-])o3)[nH]c21,39.4 µM
3,CN(C)C(=S)/N=c1\ss/c(=N\C(=S)N(C)C)n1-c1ccc(Cl)c(Cl)c1,> 100 µM
4,COc1cc2cccc(N=Cc3cccc(OC)c3OC(C)C)c2cc1OC,57.2 µM

# Test system: NCI-H460 lung
# Test: inhibition of tumour cell growth, NCI panel, 48 h
row,SMILES,TGI
1,O=C1Nc2c(ccc(Cl)c2I)C1=O,31.8 µM
2,NC1=NS(=O)(=O)Nc2nc(-c3ccc([N+](=O)[O-])o3)[nH]c21,44 µM
3,CN(C)C(=S)/N=c1\ss/c(=N\C(=S)N(C)C)n1-c1ccc(Cl)c(Cl)c1,> 100 µM
4,COc1cc2cccc(N=Cc3cccc(OC)c3OC(C)C)c2cc1OC,> 100 µM

# Test system: NCI-H522 lung
# Test: inhibition of tumour cell growth, NCI panel, 48 h
row,SMILES,TGI
1,O=C1Nc2c(ccc(Cl)c2I)C1=O,30.6 µM
2,NC1=NS(=O)(=O)Nc2nc(-c3ccc([N+](=O)[O-])o3)[nH]c21,33.4 µM
3,CN(C)C(=S)/N=c1\ss/c(=N\C(=S)N(C)C)n1-c1ccc(Cl)c(Cl)c1,> 100 µM
4,COc1cc2cccc(N=Cc3cccc(OC)c3OC(C)C)c2cc1OC,39.7 µM

# Test system: OVCAR-3 ovarian
# Test: inhibition of tumour cell growth, NCI panel, 48 h
row,SMILES,TGI
1,O=C1Nc2c(ccc(Cl)c2I)C1=O,55.7 µM
2,NC1=NS(=O)(=O)Nc2nc(-c3ccc([N+](=O)[O-])o3)[nH]c21,52.8 µM
3,CN(C)C(=S)/N=c1\ss/c(=N\C(=S)N(C)C)n1-c1ccc(Cl)c(Cl)c1,> 100 µM
4,COc1cc2cccc(N=Cc3cccc(OC)c3OC(C)C)c2cc1OC,41 µM

# Test system: OVCAR-4 ovarian
# Test: inhibition of tumour cell growth, NCI panel, 48 h
row,SMILES,TGI
1,O=C1Nc2c(ccc(Cl)c2I)C1=O,31.6 µM
2,NC1=NS(=O)(=O)Nc2nc(-c3ccc([N+](=O)[O-])o3)[nH]c21,31.3 µM
3,CN(C)C(=S)/N=c1\ss/c(=N\C(=S)N(C)C)n1-c1ccc(Cl)c(Cl)c1,> 100 µM
4,COc1cc2cccc(N=Cc3cccc(OC)c3OC(C)C)c2cc1OC,52.4 µM

# Test system: OVCAR-5 ovarian
# Test: inhibition of tumour cell growth, NCI panel, 48 h
row,SMILES,TGI
1,O=C1Nc2c(ccc(Cl)c2I)C1=O,34.3 µM
2,NC1=NS(=O)(=O)Nc2nc(-c3ccc([N+](=O)[O-])o3)[nH]c21,35 µM
3,CN(C)C(=S)/N=c1\ss/c(=N\C(=S)N(C)C)n1-c1ccc(Cl)c(Cl)c1,> 100 µM
4,COc1cc2cccc(N=Cc3cccc(OC)c3OC(C)C)c2cc1OC,> 100 µM

# Test system: OVCAR-8 ovarian
# Test: inhibition of tumour cell growth, NCI panel, 48 h
row,SMILES,TGI
1,O=C1Nc2c(ccc(Cl)c2I)C1=O,76.7 µM
2,NC1=NS(=O)(=O)Nc2nc(-c3ccc([N+](=O)[O-])o3)[nH]c21,89.3 µM
3,CN(C)C(=S)/N=c1\ss/c(=N\C(=S)N(C)C)n1-c1ccc(Cl)c(Cl)c1,> 100 µM
4,COc1cc2cccc(N=Cc3cccc(OC)c3OC(C)C)c2cc1OC,53.1 µM

# Test system: RPMI-8226 leukemia
# Test: inhibition of tumour cell growth, NCI panel, 48 h
row,SMILES,TGI
1,O=C1Nc2c(ccc(Cl)c2I)C1=O,35.8 µM
2,NC1=NS(=O)(=O)Nc2nc(-c3ccc([N+](=O)[O-])o3)[nH]c21,46.7 µM
3,CN(C)C(=S)/N=c1\ss/c(=N\C(=S)N(C)C)n1-c1ccc(Cl)c(Cl)c1,> 100 µM
4,COc1cc2cccc(N=Cc3cccc(OC)c3OC(C)C)c2cc1OC,37.7 µM

# Test system: RXF 393 renal
# Test: inhibition of tumour cell growth, NCI panel, 48 h
row,SMILES,TGI
1,O=C1Nc2c(ccc(Cl)c2I)C1=O,31.3 µM
2,NC1=NS(=O)(=O)Nc2nc(-c3ccc([N+](=O)[O-])o3)[nH]c21,25.5 µM
3,CN(C)C(=S)/N=c1\ss/c(=N\C(=S)N(C)C)n1-c1ccc(Cl)c(Cl)c1,> 100 µM

# Test system: SF-268 CNS
# Test: inhibition of tumour cell growth, NCI panel, 48 h
row,SMILES,TGI
1,O=C1Nc2c(ccc(Cl)c2I)C1=O,39.4 µM
2,NC1=NS(=O)(=O)Nc2nc(-c3ccc([N+](=O)[O-])o3)[nH]c21,38.7 µM
3,CN(C)C(=S)/N=c1\ss/c(=N\C(=S)N(C)C)n1-c1ccc(Cl)c(Cl)c1,> 100 µM
4,COc1cc2cccc(N=Cc3cccc(OC)c3OC(C)C)c2cc1OC,91.4 µM

# Test system: SF-295 CNS
# Test: inhibition of tumour cell growth, NCI panel, 48 h
row,SMILES,TGI
1,O=C1Nc2c(ccc(Cl)c2I)C1=O,36.5 µM
2,NC1=NS(=O)(=O)Nc2nc(-c3ccc([N+](=O)[O-])o3)[nH]c21,29.8 µM
3,CN(C)C(=S)/N=c1\ss/c(=N\C(=S)N(C)C)n1-c1ccc(Cl)c(Cl)c1,> 100 µM
4,COc1cc2cccc(N=Cc3cccc(OC)c3OC(C)C)c2cc1OC,41.2 µM

# Test system: SF-539 CNS
# Test: inhibition of tumour cell growth, NCI panel, 48 h
row,SMILES,TGI
1,NC1=NS(=O)(=O)Nc2nc(-c3ccc([N+](=O)[O-])o3)[nH]c21,31.6 µM
2,CN(C)C(=S)/N=c1\ss/c(=N\C(=S)N(C)C)n1-c1ccc(Cl)c(Cl)c1,> 100 µM

# Test system: SK-MEL-2 melanoma
# Test: inhibition of tumour cell growth, NCI panel, 48 h
row,SMILES,TGI
1,O=C1Nc2c(ccc(Cl)c2I)C1=O,27.7 µM
2,NC1=NS(=O)(=O)Nc2nc(-c3ccc([N+](=O)[O-])o3)[nH]c21,30.7 µM
3,CN(C)C(=S)/N=c1\ss/c(=N\C(=S)N(C)C)n1-c1ccc(Cl)c(Cl)c1,> 100 µM
4,COc1cc2cccc(N=Cc3cccc(OC)c3OC(C)C)c2cc1OC,48.6 µM

# Test system: SK-MEL-28 melanoma
# Test: inhibition of tumour cell growth, NCI panel, 48 h
row,SMILES,TGI
1,O=C1Nc2c(ccc(Cl)c2I)C1=O,32.7 µM
2,NC1=NS(=O)(=O)Nc2nc(-c3ccc([N+](=O)[O-])o3)[nH]c21,30.1 µM
3,CN(C)C(=S)/N=c1\ss/c(=N\C(=S)N(C)C)n1-c1ccc(Cl)c(Cl)c1,> 100 µM
4,COc1cc2cccc(N=Cc3cccc(OC)c3OC(C)C)c2cc1OC,66.9 µM

# Test system: SK-MEL-5 melanoma
# Test: inhibition of tumour cell growth, NCI panel, 48 h
row,SMILES,TGI
1,O=C1Nc2c(ccc(Cl)c2I)C1=O,29.5 µM
2,NC1=NS(=O)(=O)Nc2nc(-c3ccc([N+](=O)[O-])o3)[nH]c21,33.4 µM
3,CN(C)C(=S)/N=c1\ss/c(=N\C(=S)N(C)C)n1-c1ccc(Cl)c(Cl)c1,> 100 µM
4,COc1cc2cccc(N=Cc3cccc(OC)c3OC(C)C)c2cc1OC,53.9 µM

# Test system: SK-OV-3 ovarian
# Test: inhibition of tumour cell growth, NCI panel, 48 h
row,SMILES,TGI
1,O=C1Nc2c(ccc(Cl)c2I)C1=O,48.3 µM
2,CN(C)C(=S)/N=c1\ss/c(=N\C(=S)N(C)C)n1-c1ccc(Cl)c(Cl)c1,> 100 µM
3,COc1cc2cccc(N=Cc3cccc(OC)c3OC(C)C)c2cc1OC,73 µM

# Test system: SN12C renal
# Test: inhibition of tumour cell growth, NCI panel, 48 h
row,SMILES,TGI
1,O=C1Nc2c(ccc(Cl)c2I)C1=O,30.9 µM
2,NC1=NS(=O)(=O)Nc2nc(-c3ccc([N+](=O)[O-])o3)[nH]c21,36.4 µM
3,CN(C)C(=S)/N=c1\ss/c(=N\C(=S)N(C)C)n1-c1ccc(Cl)c(Cl)c1,> 100 µM
4,COc1cc2cccc(N=Cc3cccc(OC)c3OC(C)C)c2cc1OC,> 100 µM

# Test system: SNB-19 CNS
# Test: inhibition of tumour cell growth, NCI panel, 48 h
row,SMILES,TGI
1,O=C1Nc2c(ccc(Cl)c2I)C1=O,> 100 µM
2,NC1=NS(=O)(=O)Nc2nc(-c3ccc([N+](=O)[O-])o3)[nH]c21,35.9 µM
3,CN(C)C(=S)/N=c1\ss/c(=N\C(=S)N(C)C)n1-c1ccc(Cl)c(Cl)c1,> 100 µM

# Test system: SNB-75 CNS
# Test: inhibition of tumour cell growth, NCI panel, 48 h
row,SMILES,TGI
1,NC1=NS(=O)(=O)Nc2nc(-c3ccc([N+](=O)[O-])o3)[nH]c21,30.3 µM
2,CN(C)C(=S)/N=c1\ss/c(=N\C(=S)N(C)C)n1-c1ccc(Cl)c(Cl)c1,61.2 µM
3,COc1cc2cccc(N=Cc3cccc(OC)c3OC(C)C)c2cc1OC,49 µM

# Test system: SNB-78 CNS
# Test: inhibition of tumour cell growth, NCI panel, 48 h
row,SMILES,TGI
1,CN(C)C(=S)/N=c1\ss/c(=N\C(=S)N(C)C)n1-c1ccc(Cl)c(Cl)c1,> 100 µM
2,COc1cc2cccc(N=Cc3cccc(OC)c3OC(C)C)c2cc1OC,> 100 µM

# Test system: SR leukemia
# Test: inhibition of tumour cell growth, NCI panel, 48 h
row,SMILES,TGI
1,O=C1Nc2c(ccc(Cl)c2I)C1=O,42.2 µM
2,CN(C)C(=S)/N=c1\ss/c(=N\C(=S)N(C)C)n1-c1ccc(Cl)c(Cl)c1,> 100 µM

# Test system: SW-620 colon
# Test: inhibition of tumour cell growth, NCI panel, 48 h
row,SMILES,TGI
1,O=C1Nc2c(ccc(Cl)c2I)C1=O,45.6 µM
2,NC1=NS(=O)(=O)Nc2nc(-c3ccc([N+](=O)[O-])o3)[nH]c21,35.4 µM
3,CN(C)C(=S)/N=c1\ss/c(=N\C(=S)N(C)C)n1-c1ccc(Cl)c(Cl)c1,> 100 µM
4,COc1cc2cccc(N=Cc3cccc(OC)c3OC(C)C)c2cc1OC,48.8 µM

# Test system: TK-10 renal
# Test: inhibition of tumour cell growth, NCI panel, 48 h
row,SMILES,TGI
1,O=C1Nc2c(ccc(Cl)c2I)C1=O,99.2 µM
2,NC1=NS(=O)(=O)Nc2nc(-c3ccc([N+](=O)[O-])o3)[nH]c21,33 µM
3,CN(C)C(=S)/N=c1\ss/c(=N\C(=S)N(C)C)n1-c1ccc(Cl)c(Cl)c1,> 100 µM
4,COc1cc2cccc(N=Cc3cccc(OC)c3OC(C)C)c2cc1OC,59 µM

# Test system: U251 CNS
# Test: inhibition of tumour cell growth, NCI panel, 48 h
row,SMILES,TGI
1,O=C1Nc2c(ccc(Cl)c2I)C1=O,56.9 µM
2,NC1=NS(=O)(=O)Nc2nc(-c3ccc([N+](=O)[O-])o3)[nH]c21,31.7 µM
3,CN(C)C(=S)/N=c1\ss/c(=N\C(=S)N(C)C)n1-c1ccc(Cl)c(Cl)c1,> 100 µM
4,COc1cc2cccc(N=Cc3cccc(OC)c3OC(C)C)c2cc1OC,49.9 µM

# Test system: UACC-257 melanoma
# Test: inhibition of tumour cell growth, NCI panel, 48 h
row,SMILES,TGI
1,CN(C)C(=S)/N=c1\ss/c(=N\C(=S)N(C)C)n1-c1ccc(Cl)c(Cl)c1,> 100 µM
2,COc1cc2cccc(N=Cc3cccc(OC)c3OC(C)C)c2cc1OC,52.4 µM

# Test system: UACC-62 melanoma
# Test: inhibition of tumour cell growth, NCI panel, 48 h
row,SMILES,TGI
1,O=C1Nc2c(ccc(Cl)c2I)C1=O,33.8 µM
2,NC1=NS(=O)(=O)Nc2nc(-c3ccc([N+](=O)[O-])o3)[nH]c21,30 µM
3,CN(C)C(=S)/N=c1\ss/c(=N\C(=S)N(C)C)n1-c1ccc(Cl)c(Cl)c1,> 100 µM
4,COc1cc2cccc(N=Cc3cccc(OC)c3OC(C)C)c2cc1OC,45.6 µM

# Test system: UO-31 renal
# Test: inhibition of tumour cell growth, NCI panel, 48 h
row,SMILES,TGI
1,O=C1Nc2c(ccc(Cl)c2I)C1=O,32.1 µM
2,NC1=NS(=O)(=O)Nc2nc(-c3ccc([N+](=O)[O-])o3)[nH]c21,36.5 µM
3,CN(C)C(=S)/N=c1\ss/c(=N\C(=S)N(C)C)n1-c1ccc(Cl)c(Cl)c1,> 100 µM
4,COc1cc2cccc(N=Cc3cccc(OC)c3OC(C)C)c2cc1OC,> 100 µM

# Test system: XF 498 CNS
# Test: inhibition of tumour cell growth, NCI panel, 48 h
row,SMILES,TGI
1,O=C1Nc2c(ccc(Cl)c2I)C1=O,29.9 µM
2,COc1cc2cccc(N=Cc3cccc(OC)c3OC(C)C)c2cc1OC,55.4 µM

# Source: PubChem BioAssay (NCI)
